Assay results taken from ChEMBL document CHEMBL5357082, “Identification and Optimization of Small Molecule Pyrazolopyrimidine TLR7 Agonists for Applications in Immuno-oncology” (ACS Med Chem Lett, 2024).

Columns and labels:
[1] = Drug concentration in nontumor bearing Balb/C mouse at 0.5 mg/kg measured after 5 mins; format: ADME, organism-based; conditions: in vivo, read-out: Drug uptake
[2] = molecular target: T1, Toll-like receptor 7 (Mus musculus, UniProt P58681); assay: Agonist activity at mouse TLR7
T1 sequence (P58681 whole entry): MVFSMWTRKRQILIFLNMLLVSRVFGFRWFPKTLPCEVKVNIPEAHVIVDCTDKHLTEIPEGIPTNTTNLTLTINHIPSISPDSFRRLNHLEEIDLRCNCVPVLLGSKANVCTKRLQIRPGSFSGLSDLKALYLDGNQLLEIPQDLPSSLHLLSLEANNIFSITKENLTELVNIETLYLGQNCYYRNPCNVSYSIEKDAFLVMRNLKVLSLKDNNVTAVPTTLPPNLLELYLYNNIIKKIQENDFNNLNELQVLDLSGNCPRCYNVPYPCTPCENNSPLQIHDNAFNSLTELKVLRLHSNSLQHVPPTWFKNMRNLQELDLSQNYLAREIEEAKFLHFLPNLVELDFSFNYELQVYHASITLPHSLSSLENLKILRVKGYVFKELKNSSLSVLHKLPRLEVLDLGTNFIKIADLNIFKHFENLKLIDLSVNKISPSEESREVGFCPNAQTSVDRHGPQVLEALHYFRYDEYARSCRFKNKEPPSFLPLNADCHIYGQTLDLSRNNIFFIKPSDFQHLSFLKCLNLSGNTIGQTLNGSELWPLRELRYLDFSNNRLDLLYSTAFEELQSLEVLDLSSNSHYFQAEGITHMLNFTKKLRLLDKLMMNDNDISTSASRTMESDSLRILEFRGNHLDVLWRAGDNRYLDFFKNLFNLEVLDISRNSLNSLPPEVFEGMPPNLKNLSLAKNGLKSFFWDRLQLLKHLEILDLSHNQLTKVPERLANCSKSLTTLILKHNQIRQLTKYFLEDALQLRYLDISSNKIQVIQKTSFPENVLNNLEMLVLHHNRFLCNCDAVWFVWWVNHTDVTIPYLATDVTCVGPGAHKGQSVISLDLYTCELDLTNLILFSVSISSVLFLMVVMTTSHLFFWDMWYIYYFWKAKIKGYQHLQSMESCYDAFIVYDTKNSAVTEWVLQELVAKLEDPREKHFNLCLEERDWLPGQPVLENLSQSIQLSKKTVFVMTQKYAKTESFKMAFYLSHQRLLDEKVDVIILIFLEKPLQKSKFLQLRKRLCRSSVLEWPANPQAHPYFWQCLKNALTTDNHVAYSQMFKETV

[3] = molecular target: Cytochrome P450 3A4 (Homo sapiens, UniProt P08684); assay: Inhibition of CYP3A4 (unknown origin) using BFC as substrate preincubated with compound followed by substrate addition at 5 mins; format: ADME
[4] = molecular target: T2, Toll-like receptor 8 (Homo sapiens, UniProt Q9NR97); assay: Agonist activity at human TLR8
T2 sequence (Q9NR97 whole entry): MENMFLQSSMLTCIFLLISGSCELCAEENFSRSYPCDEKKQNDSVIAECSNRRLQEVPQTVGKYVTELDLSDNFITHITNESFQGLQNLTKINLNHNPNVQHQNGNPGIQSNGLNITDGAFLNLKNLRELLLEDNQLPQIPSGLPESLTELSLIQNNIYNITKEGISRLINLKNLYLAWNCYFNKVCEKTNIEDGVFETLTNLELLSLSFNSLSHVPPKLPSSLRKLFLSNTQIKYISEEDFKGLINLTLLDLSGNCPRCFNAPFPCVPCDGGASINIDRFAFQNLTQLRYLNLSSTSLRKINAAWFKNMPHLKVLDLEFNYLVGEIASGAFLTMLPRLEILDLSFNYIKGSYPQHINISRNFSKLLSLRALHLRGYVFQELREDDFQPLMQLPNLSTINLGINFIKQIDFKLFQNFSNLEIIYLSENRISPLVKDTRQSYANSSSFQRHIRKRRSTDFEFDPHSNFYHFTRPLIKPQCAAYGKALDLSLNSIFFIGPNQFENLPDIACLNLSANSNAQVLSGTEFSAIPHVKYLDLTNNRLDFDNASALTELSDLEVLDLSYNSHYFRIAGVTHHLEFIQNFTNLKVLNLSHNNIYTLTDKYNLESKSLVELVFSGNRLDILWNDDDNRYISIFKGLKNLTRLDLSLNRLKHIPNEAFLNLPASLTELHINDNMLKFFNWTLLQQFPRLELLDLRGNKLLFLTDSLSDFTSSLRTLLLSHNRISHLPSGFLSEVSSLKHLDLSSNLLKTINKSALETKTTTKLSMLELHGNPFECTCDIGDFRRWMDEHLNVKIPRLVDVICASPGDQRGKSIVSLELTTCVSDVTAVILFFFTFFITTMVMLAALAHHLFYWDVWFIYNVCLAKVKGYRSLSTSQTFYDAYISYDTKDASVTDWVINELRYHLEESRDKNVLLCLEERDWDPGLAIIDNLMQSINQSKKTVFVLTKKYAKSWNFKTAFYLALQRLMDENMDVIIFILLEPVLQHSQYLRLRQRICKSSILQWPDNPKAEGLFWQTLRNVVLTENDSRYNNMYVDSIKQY

[5] = Metabolic stability in mouse liver microsomes assessed as compound remaining at 0.5 uM incubated for 10 mins in presence of NADPH by UV absorbance based assay; format: ADME, Microsome; conditions: read-out: Stability

Sequence of Cytochrome P450 3A4 (P08684 whole entry): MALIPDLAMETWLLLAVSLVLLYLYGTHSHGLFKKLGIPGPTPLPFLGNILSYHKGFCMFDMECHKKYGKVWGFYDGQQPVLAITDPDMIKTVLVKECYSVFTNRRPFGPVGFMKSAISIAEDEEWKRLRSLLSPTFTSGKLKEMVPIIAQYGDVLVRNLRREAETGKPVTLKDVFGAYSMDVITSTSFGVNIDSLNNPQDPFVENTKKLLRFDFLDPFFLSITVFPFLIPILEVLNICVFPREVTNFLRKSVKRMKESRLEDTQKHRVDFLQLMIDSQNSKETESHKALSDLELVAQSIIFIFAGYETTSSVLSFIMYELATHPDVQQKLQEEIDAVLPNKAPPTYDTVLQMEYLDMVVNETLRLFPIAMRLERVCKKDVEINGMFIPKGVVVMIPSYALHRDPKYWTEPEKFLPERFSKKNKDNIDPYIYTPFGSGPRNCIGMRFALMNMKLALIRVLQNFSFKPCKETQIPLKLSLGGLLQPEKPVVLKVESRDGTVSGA

- concentration at 5 min [1]: 266 nM
- EC50 [2]: 27 nM
- IC50 [3]: > 20000 nM
- EC50 [4]: > 5000 nM
- remaining at 10 min, 0.5 µM [5]: 100%
Structure (SMILES): CCC[C@@H](CCO)Nc1nc(N)nc2cnn(Cc3ncc(C4CCN(C5CCOCC5)CC4)cc3OC)c12
